Paper PMC5242325 (Antiviral therapy, 2015)

Legend:
[1] = female genital tract compared to BP; cited from earlier work
[2] = administration of a moderate fat meal; cited from earlier work
[3] = Raltegravir pharmacokinetics in blood plasma; conditions: for AUC(0-t): AUC 0-12h; for AUC(0-t) / concentration at 12 h / Cmax: BP, median (IQR)
[4] = Raltegravir pharmacokinetics in cervicovaginal fluid; conditions: CVF, median (IQR); for AUC(0-t): AUC 0-12h
[5] = female, human, in vivo, 400 mg, first dose, HIV-infected postmenopausal women (n=5)
[6] = female, human, in vivo, 400 mg, steady state, HIV-infected postmenopausal women (n=5)
[7] = female, human, in vivo, 400 mg, steady state, HIV-infected premenopausal women (n=6)
[8] = female, human, in vivo, 400 mg, C12, first dose, HIV-infected postmenopausal women (n=5)
[9] = female, human, in vivo, 400 mg, C12, steady state, HIV-infected postmenopausal women (n=5)
[10] = female, human, in vivo, 400 mg, C12, steady state, HIV-infected premenopausal women (n=6)
[11] = female, human, in vivo, 400 mg, Cmax, first dose, HIV-infected postmenopausal women (n=5)
[12] = female, human, in vivo, 400 mg, Cmax, steady state, HIV-infected premenopausal women (n=6)

SMILES: C[C@@H]1CCO[C@H]2Cn3cc(C(=O)NCc4ccc(F)cc4F)c(=O)c(O)c3C(=O)N12 [dolutegravir]
- CVF:BP AUC ratio [1]: 0.07

SMILES: Cc1nnc(C(=O)NC(C)(C)c2nc(C(=O)NCc3ccc(F)cc3)c(O)c(=O)n2C)o1 [raltegravir]
- increase in AUC [2]: 13%
- AUC(0-t) [3, 5]: 4240 ng·h/mL
- AUC(0-t) ([3]; female, human, in vivo, 400 mg, first dose, HIV-negative premenopausal women (n=7)): 3100 ng·h/mL
- AUC(0-t) [3, 6]: 6180 ng·h/mL
- AUC(0-t) [3, 7]: 5760 ng·h/mL
- AUC(0-t) ([3]; female, human, in vivo, 400 mg, steady state, HIV-negative premenopausal women (n=7)): 8440 ng·h/mL
- concentration at 12 h [3, 8]: 222 ng/mL
- concentration at 12 h ([3]; female, human, in vivo, 400 mg, C12, first dose, HIV-negative premenopausal women (n=7)): 54 ng/mL
- concentration at 12 h [3, 9]: 310 ng/mL
- concentration at 12 h [3, 10]: 23 ng/mL
- concentration at 12 h ([3]; female, human, in vivo, 400 mg, C12, steady state, HIV-negative premenopausal women (n=7)): 303 ng/mL
- Cmax [3, 11]: 1660 ng/mL
- Cmax ([3]; female, human, in vivo, 400 mg, Cmax, first dose, HIV-negative premenopausal women (n=7)): 790 ng/mL
- Cmax ([3]; female, human, in vivo, 400 mg, Cmax, steady state, HIV-infected postmenopausal women (n=5)): 1170 ng/mL
- Cmax [3, 12]: 1980 ng/mL
- time after dosing by which all subjects had detectable concentrations in BP ([3]; first dose, HIV-negative premenopausal and HIV-infected postmenopausal women): ≤ 1 h
- Cmax ([3]; steady state, HIV-negative premenopausal women (n=7)): 1874 (587-2166) ng/mL
- AUC(0-t) [4, 5]: 13800 ng·h/mL
- AUC(0-t) ([4]; female, human, in vivo, 400 mg, first dose, HIV-negative premenopausal women (n=7), BLD imputed 0.1 ng/ml): 1720 ng·h/mL
- AUC(0-t) [4, 6]: 9570 ng·h/mL
- AUC(0-t) [4, 7]: 11500 ng·h/mL
- AUC(0-t) ([4]; female, human, in vivo, 400 mg, steady state, HIV-negative premenopausal women (n=7), BLD imputed 0.1 ng/ml): 3160 ng·h/mL
- concentration at 12 h [4, 8]: 1290 ng/mL
- concentration at 12 h [4, 9]: 958 ng/mL
- concentration at 12 h [4, 10]: 447 ng/mL
- Cmax [4, 11]: 4780 ng/mL
- Cmax [4, 12]: 1920 ng/mL
- Cmax ([4]; steady state, HIV-infected postmenopausal women (n=5)): 2841 (326-4430) ng/mL
